In US8497255B2, “Phosphonic acids as S1P receptor modulators” (Allergan, Inc., priority 2010, dated 2013):

These compounds were tested against T1, human S1P1 receptor (Homo sapiens, UniProt P21453) (assay: GTP γ35S binding assay for S1P1 activity). Settings: activity potency, S1P1 receptor from GTP γ35S binding; membranes, 30 min at 25° C.
T1 construct: expressed in transfected cells; membranes used
Type: biochemical
Description: Compounds were synthesized and tested for S1P1 activity using the GTP γ^35S binding assay. These compounds may be assessed for their ability to activate or block activation of the human S1P1 receptor in cells stably expressing the S1P1 receptor.
GTP γ^35S binding was measured in the medium containing (mM) HEPES 25, pH 7.4, MgCl2 10, NaCl 100, dithitothreitol 0.5, digitonin 0.003%, 0.2 nM GTP γ^35S, and 5 μg membrane protein in a volume of 150 μl. Test compounds were included in the concentration range from 0.08 to 5,000 nM unless indicated otherwise. Membranes were incubated with 100 μM 5′-adenylylimmidodiphosphate for 30 min, and subsequently with 10 μM GDP for 10 min on ice. Drug solutions and membrane were mixed, and then reactions were initiated by adding GTP γ^35S and continued for 30 min at 25° C. Reaction mixtures were filtered over Whatman GF/B filters under vacuum, and washed three times with 3 mL of ice-cold buffer (HEPES 25, pH7.4, MgCl2 10 and NaCl 100). Filters were dried and mixed with scintillant, and counted for ^35S activity using a β-counter. Agonist-induced GTP γ^35S binding was obtained by subtracting that in the absence of agonist. Binding data were analyzed using a non-linear regression method. In case of antagonist assay, the reaction mixture contained 10 nM S1P in the presence of test antagonist at concentrations ranging from 0.08 to 5000 nM.

T1 sequence (P21453 whole entry): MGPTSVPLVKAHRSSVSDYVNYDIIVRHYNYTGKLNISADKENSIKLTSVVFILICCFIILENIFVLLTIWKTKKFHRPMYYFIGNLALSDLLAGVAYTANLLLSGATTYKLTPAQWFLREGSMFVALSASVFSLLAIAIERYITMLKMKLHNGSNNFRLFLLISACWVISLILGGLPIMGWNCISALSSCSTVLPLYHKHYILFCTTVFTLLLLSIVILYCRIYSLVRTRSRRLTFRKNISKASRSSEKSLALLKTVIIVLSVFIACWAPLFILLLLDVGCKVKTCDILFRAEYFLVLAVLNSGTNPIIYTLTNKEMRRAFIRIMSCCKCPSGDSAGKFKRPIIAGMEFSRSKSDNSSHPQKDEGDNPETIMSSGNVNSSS

`CC(C)Oc1ccc(-c2nc(-c3ccc(CNCCCP(=O)(O)O)cc3)no2)cc1C(F)(F)F` [Compound 1, {3-[(4-{5-[4-isopropoxy-3-(trifluoromethyl)phenyl]-1,2,4-oxadiazol-3-yl}benzyl)amino]propyl}phosphonic acid] and `CC(C)Oc1ccc(-c2nc(-c3ccc(CNCCCP(=O)(O)O)cc3)no2)cc1Br` [Compound 2, [3-({4-[5-(3-bromo-4-isopropoxyphenyl)-1,2,4-oxadiazol-3-yl]benzyl}amino)propyl]phosphonic acid] are within 1.5-fold of each other in EC50: 3.14 nM for the first, 3.1 nM for the second.

`CC(C)Cc1ccc(-c2nc(-c3ccc(CNCCCP(=O)(O)O)cc3)no2)cc1` [Compound 3, (3-{4-[5-(4-Isobutyl-phenyl)-[1,2,4]oxadiazol-3-yl]-benzylamino}-propyl)-phosphonic acid] showed an EC50 of 1.78 nM.
